From patent publication US12710369B2, “Optical real-time biosensor” (CZ Biohub SF, LLC, priority 2018, dated 2026)

Experiments:
serotonin aptamers [1] = test: specificity test of the aptamers: MDMA spiked in control sample in the absence of brain slice (rig bath); assay type: binding; conditions: excess of MDMA (30 μM), no brain slice, oxygenated aCSF 37° C., 3 ml/min
Description: The stability of the fluorescence signal over time is characterized in a bath system (rig) under the appropriate conditions favorable for live brain slice measurements. This includes keeping the temperature of the bath at 37° C., with oxygenated artificial CSF (aCSF) flown in the chamber at a rate of 3 ml/min. A stable fluorescence signal (counts) was observed over tens of minutes under continuous laser excitation, which confirmed the robustness of the aptamers, fluorophores and the surface under such conditions. To test the specificity of the aptamers, an excess of MDMA (30 μM) was spiked in a control sample in the absence of brain slice.

[2] = test system: live brain slices (nucleus accumbens); test: optical fiber sensor in live brain slices, endogenous release of serotonin upon MDMA stimulation; assay type: cell-based, mouse; design: dose or concentration left out as unconfirmed; conditions: following infusion of MDMA for 10 minutes; 532 nm excitation; NAc
From the text: According to some embodiments, to measure endogenous release of DA and 5-HT upon drug (MDMA) stimulation with the optical biosensor in live brain slices, a rig system and a brain slice recording chamber are installed in a lab with all the necessary components, including: a gravity-perfusion system alimented by peristatic pump, temperature controller, oxygen lines, microscope, camera and micro-stage. It was noted that black curtains covering the entire rig system were necessary to minimize the background and fluctuations from room-light.
Initially, the optical fiber was successfully inserted in a brain slice without compromising or breaking the micron-size tip of the optical fiber. However, due to mechanical contact, the fluorescence signal was mostly lost during the insertion process. Subsequently, the fiber was protected by a capillary tube from mechanical breakage during the transfer processes onto the rig holder and bath. […]
After confirming the sensitivity, robustness, and specificity of the aptamer sensor in the rig system, test measurements were performed with live brain slices. […] After approximately 10 minutes of baseline measurements (aCSF) to determine the stability of the fluorescence signal in the brain environment over time and estimate the photobleaching rate, drug infusion at […] was started for 10 minutes. […]

serotonin aptamers [3] = test: real-time measurement with one-color optical biosensor system, fiber-tethered signal-off serotonin aptamer switch; assay type: binding; conditions: specificity of 5-HT signal-off aptamer optical probe towards other molecules
From the text: In some embodiments, the optical biosensor system was used to measure other molecules, such as dopamine (DA) and serotonin ([…]). The aptamers for DA and 5-TH are converted into aptamer-switches. (See, e.g., Nakatsuka et al., Aptamer-field-effect Transistors Overcome Debye Length Limitations for Small-molecule Sensing, Science 362: 319-324 (2018).) Higher sensitivity and better photostability were achieved through improvements in detector alignment.
To evaluate the performance of the optical biosensor system in a biological matrix, spiked concentration of 5-HT and DA in an artificial cerebrospinal fluid (aCSF) or a cerebrospinal fluid (CSF), and in brain slices mediums were measured using a one-color optical biosensor system.
The optical biosensor system 2400 includes a laser source 2410, an optical beam splitter 2420, and a detector 2430. The optical biosensor system 2400 may include an optional battery for providing power to the laser source 2410 and the detector 2430. […]
Molecular switches (not shown) are attached to the second end 2466 of the optical waveguide 2462. […] When target molecules, such as dopamine or serotonin, bind to the molecular switches, the molecular switches may emit fluorescence light. The fluorescence light may have a second wavelength that is longer than the first wavelength of the excitation light. The emitted fluorescence light may be coupled back into the optical waveguide 2462 through the second end 2466 and be propagated through the optical waveguide 2462 to be emitted from the first end 2464.
The fluorescence light emitted from the […] of the optical waveguide 2462 may be collimated by the lens 2440 and incident on the optical beam splitter 2420. The optical beam splitter 2420 is configured to transmit the fluorescence light. In some embodiments, the optical beam splitter 2420 may be a dichroic beam splitter configured to have a high reflectance value for the first wavelength of the excitation light, and a high transmittance value for the second wavelength of the fluorescence light. […]

Row | Structure (SMILES) | change in the fluorescence signal (serotonin aptamers [1]) | fluorescence intensity, red channel (Cy5) and green channel (Cy3) [2] | sensor responses (fluorescence signal) (serotonin aptamers [3])
1 | CNC(C)Cc1ccc2c(c1)OCO2 (centres unmarked) [MDMA] | Minimal change | clear drop in the fluorescence intensity | 
2 | O=C(O)Cc1c[nH]c2ccc(O)cc12 [5-hydroxyindoleacetic acid] |  |  | negligible
3 | NCCc1ccc(O)c(O)c1 [dopamine] |  |  | negligible
4 | CNC[C@H](O)c1ccc(O)c(O)c1 [epinephrine] |  |  | negligible
